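Interpolation was linear, between the two tested concentrations surrounding the appropriate level; five concentrations were tested over 48 hours in 96-well plates. Abbreviation: GI50, concentration required for 50% inhibition of growth. TGI marks complete inhibition of growth.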
Assays:
Assay in all cases: NCI tumour cell line growth inhibition, 48 h
UACC-62 melanoma = tested on: UACC-62 melanoma
UO-31 renal = tested on: UO-31 renal
SF-539 CNS = tested on: SF-539 CNS
NCI-H460 lung = tested on: NCI-H460 lung
IGROV1 ovarian = tested on: IGROV1 ovarian
SN12C renal = tested on: SN12C renal
M14 melanoma = tested on: M14 melanoma
A549 NSCLC = tested on: A549 NSCLC
BT-549 breast = tested on: BT-549 breast
NCI-H522 lung = tested on: NCI-H522 lung

Compound | GI50 (UACC-62 melanoma) [µM] | TGI (UACC-62 melanoma) [µM] | GI50 (UO-31 renal) [µM] | TGI (UO-31 renal) [µM] | GI50 (SF-539 CNS) [µM] | TGI (SF-539 CNS) [µM] | GI50 (NCI-H460 lung) [µM] | TGI (NCI-H460 lung) [µM] | GI50 (IGROV1 ovarian) [µM] | TGI (IGROV1 ovarian) [µM] | GI50 (SN12C renal) [µM] | TGI (SN12C renal) [µM] | GI50 (M14 melanoma) [µM] | TGI (M14 melanoma) [µM] | GI50 (A549 NSCLC) [µM] | TGI (A549 NSCLC) [µM] | GI50 (BT-549 breast) [µM] | TGI (BT-549 breast) [µM] | GI50 (NCI-H522 lung) [µM] | TGI (NCI-H522 lung) [µM]
COc1cc2c(cc1OC(C)C)[C@H](c1ccc(Cl)cc1)N(c1ccc(N(C)CC3CCC(N4CCN(C)C(=O)C4)CC3)cc1)C(=O)C2 (stereo partly drawn) | 0.521 | 3.52 | 0.305 | 2.22 | 1.64 | 3.21 | 0.531 | 4.43 | 1.16 | 4.13 | 2.95 | 9.15 | 2.72 | 7.86 | 0.537 | 5.24 | 2.18 | 7.7 | 3.9 | 10.4
O=C1NC(=C(Cl)Cl)/C(=N/S(=O)(=O)N2CCCCC2)N1 | 1.61 | 3.04 | 2.87 | 12.4 | 2.2 | 5.55 | 3.27 | 11.2 |  |  | 1.7 | 3.14 | 2.06 | 4.54 | 6.85 | 22.2 | 2.33 | 5.62 | 1.59 | 3.39
CC1Cc2c(Cl)ncnc2N(C)c2ccc(Cl)cc21 (stereo not drawn) | 0.406 | 69.2 | 0.337 | > 100 | 0.513 | > 100 | 0.381 | > 100 | 0.468 | > 100 | 0.411 | 19.3 | 0.312 | 29.7 | 0.378 | > 100 | 0.309 | 11.1 | 0.232 | 0.776
C/C=C(\C)c1cc(=O)c2c(C)cc3c(c2o1)C(=O)c1c(O)c(C2CC(C)(N(C)C)C(OC(C)=O)C(C)O2)cc(C2CC(N(C)C)C(O)C(C)O2)c1C3=O (stereo not drawn) |  | 3.97 |  | 7.87 |  | 2.59 |  | 5.94 |  | 6.01 |  | 8.81 |  | 1.85 |  | > 50 |  | 3.42 |  | 1.16
O=C(CSc1nc2c(n1Nc1ccccc1)-c1ccccc1SC2)Nc1nc(-c2ccc(Cl)cc2)cs1 | 13.5 | > 100 | > 100 | > 100 | 25.8 | > 100 |  |  | 12.5 | 78.2 | > 100 | > 100 | > 100 | > 100 |  |  | 33.5 | > 100 | 5.73 | > 100
COc1cc(/C=C2\CC3C4CC=C5C[C@@H](OC(C)=O)CC[C@]5(C)C4CC[C@]3(C)C2=O)ccc1OCCN1CCCCC1 (stereo partly drawn) | 1.99 | 3.66 | 1.98 | 4.99 | 2.02 | 3.82 | 3.02 | 11.6 |  |  |  |  | 2.09 | 3.79 | 3.42 | > 100 | 15.1 | 31.7 | 7.28 | 25.7
C[C@@H](Oc1cc(-n2cnc3ccc(OC4CCN(C)CC4)cc32)sc1C(N)=O)c1ccccc1Cl | 0.033 | 4.62 | 1.74 | 5.95 | 0.0564 | 2.29 | 0.0126 | 3.19 | 0.0622 | 6.88 | 0.255 | 4.75 |  |  | 0.0183 | 3 | 0.168 | 5.28 | 0.0117 | 5.03

— PubChem BioAssay (NCI)
